Results on nine molecules are retold here after US5049549A, “Rhodomycins with a modified carbohydrate unit” (Behringwerke Aktiengesellschaft, priority 1988, dated 1991).

The structures appear in SMILES notation. Converted amounts (≈) assume the structure as drawn. Where two headings read alike, the source gives them in different places.

The subject of one series is L1210 cells. The series is described as follows: Proliferation test (MTT reduction), L1210. The series is classed as cell-based. On the procedure: (§1) L1210, A 549 or HT 29 in the exponential growth phase are incubated in a cell density of 5×10^3 cells/ml in RPMI 1640 medium in a 96-well microtest plate with various concentrations of the test substance at 37° C., 5% CO2 and 95% relative humidity for 72 h. Control experiments contain merely growth medium in place of test substance. Determinations in quadruplicate are made up for each test substance and for the control. After incubation for 65 h, 50 µl of an MTT solution (2.5 mg/ml in phosphate-buffered saline) are added. In the presence of live cells MTT is reduced to a dark-red insoluble formazan dyestuff. This reaction is complete after 7 h (L1210 cells) or after 24 h (A 549, HT 29 cells), and the supernatant medium is carefully aspirated off. The insoluble dyestuff is dissolved by addition of 100 µl of DMSO, and the extinction of the solution produced in this way is subsequently measured at a wavelength of 492 nm for each well in a 340 CC Multiscan Photometer from Flow.
(§2) The ratio of the extinctions with treated and untreated cells yields a dose-effect plot from which the concentration which just kills 50% of the cells (IC50) can be read off. The coefficient of variation for repeat tests is less than 15%.
A general note: Tetrazolium dyes change colour on reduction, which living cells bring about.

For a further series, the system named is A 549 cells. Put plainly: Proliferation test (MTT reduction), A549. The series is classed as cell-based. How it is done: as §1, §2
The subject of the next series is HT 29 cells. The series is described as follows: Proliferation test (MTT reduction), HT29. Type of series: cell-based. To be noted: Homo sapiens, read-out: IC50 MTT assay HT29. How it is done:
as §1, §2

In the next series the test system is L1210 leukemia cells. The series is described as follows: Cytotoxicity for L1210 leukemia cells (stem cell assay, SCA). The conditions noted are these: Mus musculus. Type of series: cell-based. On the procedure:
The test was carried out in accordance with the methods described by Hamburger and Salmon, with the modifications described below.
Conditioned medium was replaced by McCoy 5A medium. As a consequence of the high cloning rate of the L1210 leukemia cells in soft agar, the number of tumor cells per plate was reduced to 5×10^2.
The cells were incubated with various concentrations of the test substance at 37° C. for 1 h. The cells were subsequently washed twice with McCoy 5A medium and subsequently plated out in a two-layer agar system as upper layer in accordance with the Hamburger and Salmon method.
Additional parallel experiments were carried out using a continuous incubation time, in which case various concentrations of the test substance were mixed with the upper agar layer before plating out of the cells.
The plates were incubated in an incubator with 5% CO2, 20% O2 and 95% relative humidity for 5-7 days. After this time, colonies with a diameter of 60 μm were counted using an invertoscope.
The results have been reported as the percentage of colonies in treated versus untreated groups. The coefficient of variation for repeat experiments was less than 15%.
The IC50 for continuous and one-hour incubation was determined from the dose-effect plot (Tab. 1).

Another series relates to patients. To be noted: cited from earlier work.
[1] abbreviates: Mus musculus, L1210, 72 h; read-out: IC50 MTT assay L1210.
[2] abbreviates: Homo sapiens, A549, 72 h; read-out: IC50 MTT assay A549.
The mark [3] stands for this setting: L1210, 1 h incubation, read-out: IC50 SCA 1 h.
The mark [4] stands for this setting: L1210, 1 h, read-out: IC50 SCA 1 h.

For the molecule `CC[C@@]1(O)C[C@H](O[C@H]2C[C@H](N)[C@H](N)[C@H](C)O2)c2c(O)c3c(c(O)c2[C@H]1O)C(=O)c1cccc(OC)c1C3=O` [compound 10, 4-O-Methyl-7-O-(3',4'-diamino-2',3',4',6'-tetradeoxy-alpha-L-lyxohexopyranosyl)-β-rhodomycinone], the IC50 in the series with L1210 cells (setting [1]) stood at 0.039 µg/mL (≈ 0.0738 µM); in the series with A 549 cells (setting [2]), 0.095 µg/mL (≈ 0.18 µM); with HT 29 cells (HT-29, HT29, 72 h) it was 0.033 µg/mL (≈ 0.0624 µM).
On to `CC[C@@]1(O)C[C@H](O[C@H]2C[C@H](NC(=O)C(F)(F)F)[C@H](NC(=O)C(F)(F)F)[C@H](C)O2)c2c(O)c3c(c(O)c2[C@H]1O)C(=O)c1cccc(O)c1C3=O` [compound 15, 7-O-(3',4'-bis-(trifluoroacetamido)-2',3',4',6'-tetradeoxy-alpha-L-lyxohexopyranosyl)-β-rhodomycinone], for which the IC50 in the series on L1210 leukemia cells (setting [3]) worked out at 0.43 µg/mL (≈ 0.609 µM); in the series with L1210 cells (setting [1]) it was 0.037 µg/mL (≈ 0.0524 µM); in the series with A 549 cells (setting [2]) it was 0.059 µg/mL (≈ 0.0835 µM); in the series on HT 29 cells (HT-29, HT29, 72 h), 0.1 µg/mL (≈ 0.142 µM).
Regarding `COc1cccc2c1C(=O)c1c(O)c3c(c(O)c1C2=O)C[C@@](O)(C(C)=O)C[C@@H]3O[C@H]1C[C@H](N)[C@H](O)[C@H](C)O1` [daunorubicin], the “side effects of the treatment” value in the series with patients (in vivo) was “damage to the circulatory system and symptoms characteristic thereof”.
Take `CC[C@@]1(O)C[C@H](O[C@H]2C[C@H](N=[N+]=[N-])[C@H](NC(=O)C(F)(F)F)[C@H](C)O2)c2c(O)c3c(c(O)c2[C@H]1O)C(=O)c1cccc(O)c1C3=O` [compound 13, 7-O-(3'-Azido-2',3',4',6'-tetradeoxy-4'-trifluoroacetamido-alpha-L-lyxohexopyranosyl)-β-rhodomycinone]: the IC50 in the series with L1210 leukemia cells (setting [3]) stood at 0.29 µg/mL (≈ 0.456 µM); in the series with L1210 cells (setting [1]), 0.1 µg/mL (≈ 0.157 µM); in the series on A 549 cells (setting [2]), 0.1 µg/mL (≈ 0.157 µM); in the series on HT 29 cells (HT-29, HT29, 72 h), 0.2 µg/mL (≈ 0.314 µM).
`CC[C@@]1(O)C[C@H](O[C@H]2C[C@H](NC(=O)C(F)(F)F)[C@@H](N=[N+]=[N-])[C@H](C)O2)c2c(O)c3c(c(O)c2[C@H]1O)C(=O)c1cccc(O)c1C3=O` [compound 17, 7-O-(4'-Azido-2',3',4',6'-tetradeoxy-3'-trifluoroacetamido-alpha-L-arabinohexopyranosyl)-β-rhodomycinone]: the IC50 in the series with L1210 leukemia cells (setting [4]) came out at 1.4 µg/mL (≈ 2.2 µM); in the series on L1210 cells (Mus musculus, L1210, 72 h, read-out: IC50 MTT assay L1210), 0.33 µg/mL (≈ 0.518 µM); with A 549 cells (Homo sapiens, A549, 72 h, read-out: IC50 MTT assay A549) it was 0.52 µg/mL (≈ 0.817 µM); in the series with HT 29 cells (HT-29, 72 h), 0.34 µg/mL (≈ 0.534 µM).
With `CC[C@@]1(O)C[C@H](O[C@H]2C[C@H](N)[C@H](N)[C@H](C)O2)c2c(O)c3c(c(O)c2[C@H]1O)C(=O)c1cccc(O)c1C3=O` [compound 16, 7-O-(3',4'-Diamino-2',3',4',6'-tetradeoxy-alpha-L-lyxohexo-pyranosyl)-β-rhodomycinone], the IC50 with L1210 leukemia cells (setting [3]) was 0.069 µg/mL (≈ 0.134 µM); with L1210 cells (setting [1]) it was 0.01 µg/mL (≈ 0.0194 µM); with A 549 cells (setting [2]) it was 0.04 µg/mL (≈ 0.0777 µM); in the series on HT 29 cells (HT-29, HT29, 72 h), 0.069 µg/mL (≈ 0.134 µM).
As to `CC[C@@]1(O)C[C@H](O[C@H]2C[C@H](O)[C@H](N)[C@H](C)O2)c2c(O)c3c(c(O)c2[C@H]1O)C(=O)c1cccc(OC)c1C3=O` [compound 8], the IC50 was determined as 0.043 µg/mL (≈ 0.0812 µM) with L1210 cells (setting [1]); 0.14 µg/mL (≈ 0.264 µM) in the series on A 549 cells (setting [2]); 0.043 µg/mL (≈ 0.0812 µM) with HT 29 cells (HT-29, HT29, 72 h).
As to `COc1cccc2c1C(=O)c1c(O)c3c(c(O)c1C2=O)C[C@@](O)(C(=O)CO)C[C@@H]3O[C@H]1C[C@H](N)[C@H](O)[C@H](C)O1` [Adriamycin, reference compound], the IC50 in the series with L1210 leukemia cells (setting [4]) turned out to be 0.04 µg/mL (≈ 0.0736 µM); in the series with L1210 leukemia cells (L1210, read-out: IC50 SCA cont.) it was 0.02 µg/mL (≈ 0.0368 µM). Further, the “side effects of the treatment” value in the series with patients (clinical use, specialist literature) was “damage to the circulatory system and symptoms characteristic thereof”.
In the case of `CC[C@@]1(O)C[C@H](O[C@H]2C[C@H](N)[C@@H](NC(=O)C(F)(F)F)[C@H](C)O2)c2c(O)c3c(c(O)c2[C@H]1O)C(=O)c1cccc(O)c1C3=O` [compound 12, 7-O-(3'-Amino-2',3',4',6'-tetradeoxy-4'-trifluoroacetamido-alpha-L-arabinohexopyranosyl)-β-rhodomycinone], the IC50 with L1210 leukemia cells (setting [3]) is 0.44 µg/mL (≈ 0.721 µM); with L1210 cells (setting [1]), 0.03 µg/mL (≈ 0.0491 µM); with A 549 cells (setting [2]), 0.027 µg/mL (≈ 0.0442 µM); with HT 29 cells (HT-29, HT29, 72 h) it was 0.022 µg/mL (≈ 0.036 µM).

For orientation: IC50 means the point on the concentration scale where inhibition reaches its midpoint.
